Results on 13 molecules are retold here after patent publication US12473289B2, “Heterocyclic compounds as delta-5 desaturase inhibitors and methods of use” (Amgen Inc., priority 2019, dated 2025).

Molecules are shown by their SMILES.

Sequence of Delta-5-Desaturase (D5D) (O60427 whole entry, species assumed): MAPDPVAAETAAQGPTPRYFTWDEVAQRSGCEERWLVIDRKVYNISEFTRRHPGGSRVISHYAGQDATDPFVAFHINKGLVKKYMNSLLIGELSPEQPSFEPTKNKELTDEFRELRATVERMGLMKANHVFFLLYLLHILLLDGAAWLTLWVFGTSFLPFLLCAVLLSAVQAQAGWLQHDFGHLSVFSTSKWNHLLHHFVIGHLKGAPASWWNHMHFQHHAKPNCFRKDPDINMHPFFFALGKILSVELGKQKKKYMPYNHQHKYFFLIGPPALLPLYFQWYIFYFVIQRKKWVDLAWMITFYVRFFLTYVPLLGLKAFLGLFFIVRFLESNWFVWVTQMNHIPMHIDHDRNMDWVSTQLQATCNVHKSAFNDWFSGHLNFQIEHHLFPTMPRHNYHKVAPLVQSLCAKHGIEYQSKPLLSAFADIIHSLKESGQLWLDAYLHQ

The target of the assay is Delta-5-Desaturase (D5D) (Homo sapiens (Human), UniProt O60427). Description: In vitro measurement of Delta-5-Desaturase inhibitory activity using DGLA-CoA and Arachidonyl-CoA mass spectrometric assays. In kind it is biochemical. The settings on record: membrane preparations of D5D-overexpressing HEK293 6E cells; averaged over at least two independent runs. The essentials:
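Membranes from D5D-overexpressing HEK293 6E cells (10 μg/mL final) in Tris pH 7.5 with MgCl2, octyl glucoside and TCEP were mixed 1:1 with substrate solution (0.01 mM DGLA, 0.25 mM NADH, 0.25 mM ATP, 0.05 mM CoA) for 1 h at ambient temperature. RapidFire SPE-MS/MS MRM; IC50 by 4-parameter fit, ≥2 runs.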
For the molecule `COc1cc2nc(C(F)(F)F)c(-c3ccc(OCC(F)(F)F)cc3)c(=O)n2cc1F` [Example 39-57, 7-fluoro-8-methoxy-3-[4-(2,2,2-trifluoroethoxy)phenyl]-2-(trifluoromethyl)-4H-pyrido[1,2-a]pyrimidin-4-one], it took 0.0041 µM to reach half-maximal inhibition (IC50). That is a single-digit nanomolar value. For the molecule `Cc1ccc2nc(C(F)(F)F)c(-c3cnn(CC(F)(F)C(F)(F)F)c3)c(=O)n2n1` [Example 39-32, 7-methyl-3-[1-(2,2,3,3,3-pentafluoropropyl)-1H-pyrazol-4-yl]-2-(trifluoromethyl)-4H-pyrimido[1,2-b]pyridazin-4-one], 0.154 µM corresponded to half-maximal inhibition (IC50). In turn, `CCCn1cc(-c2c(C(F)(F)F)nc3ccccn3c2=O)cn1` [Example 5-4, 3-(1-propyl-1H-pyrazol-4-yl)-2-(trifluoromethyl)-4H-pyrido[1,2-a]pyrimidin-4-one] returned an IC50 of 0.198 µM. The same measure for `O=c1c(-c2ccc(OCC(F)(F)F)cc2)c(C(F)(F)F)nc2cc(OC(F)F)ccn12` [Example 1-66, 8-(difluoromethoxy)-3-(4-(2,2,2-trifluoroethoxy)phenyl)-2-(trifluoromethyl)-4H-pyrido[1,2-a]pyrimidin-4-one]: 0.0791 µM; for `COc1ccn2c(=O)c(-c3cnn(CC#N)c3)c(C(F)(F)F)nc2c1` [Example 1-26, (4-(8-methoxy-4-oxo-2-(trifluoromethyl)-4H-pyrido[1,2-a]pyrimidin-3-yl)-1H-pyrazol-1-yl)acetonitrile]: 0.278 µM; for `COc1ccn2c(=O)c(-c3ccc(OCC(F)(F)F)c(F)c3)c(C(F)F)nc2c1` [Example 1-12, 2-(difluoromethyl)-3-(3-fluoro-4-(2,2,2-trifluoroethoxy)phenyl)-8-methoxy-4H-pyrido[1,2-a]pyrimidin-4-one]: 0.0099 µM.

Molecule `COc1ccn2c(=O)c(-c3cnn(CC4CC(F)(F)C4)c3)c(C(F)(F)F)nc2c1` [Example 39-49, 3-{1-[(3,3-difluorocyclobutyl)methyl]-1H-pyrazol-4-yl}-8-methoxy-2-(trifluoromethyl)-4H-pyrido[1,2-a]pyrimidin-4-one] came in with an IC50 of 0.0046 µM. Molecule `COc1ccn2c(=O)c(-c3cnn(C4CC4)c3)c(C(F)(F)F)nc2c1` [Example 49, 3-(1-Cyclopropyl-1H-pyrazol-4-yl)-8-methoxy-2-(trifluoromethyl)-4H-pyrido[1,2-a]pyrimidin-4-one] registered a half-maximal inhibitory concentration (IC50) of 0.104 µM. Then `C[S@+]([O-])c1ccn2c(=O)c(-c3ccc(OCC(F)(F)F)cc3)c(C(F)(F)F)nc2c1` [Example 15-3, 8-((S)-methylsulfinyl)-3-(4-(2,2,2-trifluoroethoxy)phenyl)-2-(trifluoromethyl)-4H-pyrido[1,2-a]pyrimidin-4-one], with 0.235 µM; and `COc1ccn2c(=O)c(-c3cnn(-c4ccc(C(F)(F)F)cc4)c3)c(C(F)(F)F)nc2c1` [Example 1-71, 8-methoxy-2-(trifluoromethyl)-3-(1-(4-(trifluoromethyl)phenyl)-1H-pyrazol-4-yl)-4H-pyrido[1,2-a]pyrimidin-4-one], with 4.88 µM. Molecule `O=c1c(-c2ccc(OCC(F)(F)F)cc2)c(C(F)(F)F)nc2cc(C(F)(F)F)ccn12` [Example 4-1, 3-(4-(2,2,2-Trifluoroethoxy)phenyl)-2,8-bis(trifluoromethyl)-4H-pyrido[1,2-a]pyrimidin-4-one] had a 50% inhibitory concentration (IC50) of 5.22 µM.

The molecule `COc1cc2nc(C(F)(F)F)c(-c3cnn(CC(F)(F)C(F)(F)F)c3)c(=O)n2cn1` [Example 39-10, 8-methoxy-3-[1-(2,2,3,3,3-pentafluoropropyl)-1H-pyrazol-4-yl]-2-(trifluoromethyl)-4H-[1,3]diazino[1,6-a]pyrimidin-4-one] came in with an IC50 of 0.0063 µM.

For `Cn1c(=O)c(F)cn2c(=O)c(-c3cnn(CC(F)(F)C(F)(F)F)c3)c(C(F)(F)F)nc12` [Example 63, 3-Fluoro-1-methyl-7-[1-(2,2,3,3,3-pentafluoropropyl)-1H-pyrazol-4-yl]-8-(trifluoromethyl)-1H,2H,6H-[1,3]diazino[1,2-a]pyrimidine-2,6-dione], the IC50 worked out at 0.0436 µM.

In general, IC50 refers to the concentration that gives 50% inhibition.
